Patent US9796711B2, “Substituted pyrazolo[3,4-b]pyridin-6-carboxylic acids and method of use” (AbbVie S.àr.l., priority 2015, dated 2017)

Tests used:
ΔF508-CFTR [1] = molecular target: T1, ΔF508-CFTR (Homo sapiens, UniProt P13569, DEL508-508); experiment: CFTR cell surface levels using HRP-tagged ΔF508-CFTR expressing CFBE cells, in the presence of a co-corrector; assay type: cell-based; settings: HRP-tagged ΔF508-CFTR expressing CFBE cells, in the presence of 3 μM co-corrector; for EC50: read-out: EC50
T1 construct: host or cells: CFBE41o-, doxycycline-inducible
T1 sequence (P13569 with tags, fused parts or gaps DEL508-508): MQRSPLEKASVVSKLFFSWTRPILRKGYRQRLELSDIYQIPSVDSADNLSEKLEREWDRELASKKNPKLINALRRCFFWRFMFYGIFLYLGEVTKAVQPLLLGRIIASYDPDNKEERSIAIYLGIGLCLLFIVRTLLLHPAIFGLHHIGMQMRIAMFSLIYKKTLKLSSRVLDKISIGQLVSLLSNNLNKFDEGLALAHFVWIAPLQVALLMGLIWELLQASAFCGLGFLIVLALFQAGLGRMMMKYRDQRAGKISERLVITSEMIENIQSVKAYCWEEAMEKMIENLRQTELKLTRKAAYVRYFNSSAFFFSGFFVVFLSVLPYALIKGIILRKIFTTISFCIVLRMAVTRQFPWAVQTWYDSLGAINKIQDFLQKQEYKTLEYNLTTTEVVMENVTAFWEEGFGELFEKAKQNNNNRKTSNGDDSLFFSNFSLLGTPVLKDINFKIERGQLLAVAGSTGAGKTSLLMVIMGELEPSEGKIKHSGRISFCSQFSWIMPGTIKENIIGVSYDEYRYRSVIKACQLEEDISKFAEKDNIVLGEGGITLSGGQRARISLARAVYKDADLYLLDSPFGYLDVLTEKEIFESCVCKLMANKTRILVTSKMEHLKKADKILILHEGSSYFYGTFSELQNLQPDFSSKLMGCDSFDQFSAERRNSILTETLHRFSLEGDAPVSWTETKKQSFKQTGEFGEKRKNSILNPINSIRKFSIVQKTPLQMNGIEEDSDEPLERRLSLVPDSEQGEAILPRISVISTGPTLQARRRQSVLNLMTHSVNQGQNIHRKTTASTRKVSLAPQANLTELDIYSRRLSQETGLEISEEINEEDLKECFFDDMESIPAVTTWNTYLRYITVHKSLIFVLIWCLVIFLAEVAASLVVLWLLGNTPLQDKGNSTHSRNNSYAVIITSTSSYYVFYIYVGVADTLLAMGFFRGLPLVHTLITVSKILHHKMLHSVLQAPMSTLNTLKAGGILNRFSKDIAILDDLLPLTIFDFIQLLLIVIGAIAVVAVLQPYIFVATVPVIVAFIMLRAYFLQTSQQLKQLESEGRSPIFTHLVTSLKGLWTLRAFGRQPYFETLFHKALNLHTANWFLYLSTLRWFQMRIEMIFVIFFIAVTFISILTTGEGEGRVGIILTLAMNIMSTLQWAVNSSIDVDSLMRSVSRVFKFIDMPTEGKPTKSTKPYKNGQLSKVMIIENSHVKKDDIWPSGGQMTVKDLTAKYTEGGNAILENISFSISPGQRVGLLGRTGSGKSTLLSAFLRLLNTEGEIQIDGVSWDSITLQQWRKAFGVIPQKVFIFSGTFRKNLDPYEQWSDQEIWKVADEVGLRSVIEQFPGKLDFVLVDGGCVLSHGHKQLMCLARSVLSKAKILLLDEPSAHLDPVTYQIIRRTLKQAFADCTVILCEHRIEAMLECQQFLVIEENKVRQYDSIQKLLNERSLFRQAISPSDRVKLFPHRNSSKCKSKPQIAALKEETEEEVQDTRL
Method in brief: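 Cells were seeded with 0.5 μg/mL doxycycline and held 68 h at 37 °C. Test compounds plus 3 μM co-corrector (final 0.1% DMSO) were then added for 20 h at 33 °C. Washed cells received HRP substrate, and luminescence was normalized between DMSO and 3 μM co-corrector controls.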

ΔF508-CFTR [2] = molecular target: T1, ΔF508-CFTR; experiment: CFTR cell surface levels using HRP-tagged ΔF508-CFTR expressing CFBE cells, intrinsic corrector capacity; assay type: cell-based; settings: for EC50: read-out: EC50
Method in brief: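 Here the cells express ΔF508-CFTR with horseradish peroxidase inserted in extracellular loop 4, so only rescued channel at the surface gives luminescent signal. Compounds act on their own, 20 h at the reduced temperature of 33 °C; values are percent activity relative to DMSO and a 3 μM corrector.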

[3] = HRP-tagged ΔF508-CFTR CFBE41o- cells, compounds alone (intrinsic corrector capacity), 20 hours at 33° C., positive control 3 μM corrector
[4] = HRP-tagged ΔF508-CFTR CFBE41o- cells, compounds alone (intrinsic corrector capacity), 20 hours at 33° C.
[5] = HRP-tagged ΔF508-CFTR expressing CFBE cells, intrinsic corrector capacity (no co-corrector), 33° C., 20 hours

Row | SMILES | % Activation (ΔF508-CFTR [1]) [%] | EC50 (ΔF508-CFTR [1]) [nM] | % Activation (ΔF508-CFTR [2]; [3]) [%] | EC50 (ΔF508-CFTR [2]; [4]) [nM] | % Activation (ΔF508-CFTR [2]; [5]) [%] | EC50 (ΔF508-CFTR [2]; [5]) [nM]
1 | Cc1nn(-c2ccccc2)c2nc(C(=O)O)cc(OCC3CCCC3(F)F)c12 (stereo not drawn) [compound 389, 4-[(2,2-difluorocyclopentyl)methoxy]-3-methyl-1-phenyl-1H-pyrazolo[3,4-b]pyridine-6-carboxylic acid] | 280.6 | 1290 | 101.73 | 1670 | – | –
2 | Cc1nn(-c2ccccc2)c2nc(C(=O)O)cc(O[C@H]3C[C@@H](N(C)C)C3)c12 [compound 340, 4-{[cis-3-(dimethylamino)cyclobutyl]oxy}-3-methyl-1-phenyl-1H-pyrazolo[3,4-b]pyridine-6-carboxylic acid] | 146 | 4170 | 18.86 | 7500 | – | –
3 | O=C(O)c1cc(OCCN2CCNC2=O)c2c(C3CCC3)nn(-c3ccccc3)c2n1 [compound 640, 3-cyclobutyl-4-[2-(2-oxoimidazolidin-1-yl)ethoxy]-1-phenyl-1H-pyrazolo[3,4-b]pyridine-6-carboxylic acid] | 137.45 | > 10000 | – | – | 13.97 | > 10000
4 | O=C1CC[C@H](Oc2cc(C(=O)O)nc3c2c(C2CCC2)nn3-c2ccccc2)CN1 [compound 619, 3-cyclobutyl-4-{[(3S)-6-oxopiperidin-3-yl]oxy}-1-phenyl-1H-pyrazolo[3,4-b]pyridine-6-carboxylic acid] | 134.1 | > 10000 | – | – | 7.484 | > 10000
5 | CC(C)c1nn(-c2cccc(N3CCCC3)c2)c2nc(C(=O)O)cc(-c3ccc(N4CCOCC4)cc3)c12 [compound 157, 4-[4-(morpholin-4-yl)phenyl]-3-(propan-2-yl)-1-[3-(pyrrolidin-1-yl)phenyl]-1H-pyrazolo[3,4-b]pyridine-6-carboxylic acid] | 621 | 485 | 388.2 | 459 | – | –
6 | CN1CCN(c2ccc(-c3cc(C(=O)O)nc4c3c(C3CCC3)nn4C3CCCCC3)cn2)CC1 [compound 877, 3-cyclobutyl-1-cyclohexyl-4-[6-(4-methylpiperazin-1-yl)pyridin-3-yl]-1H-pyrazolo[3,4-b]pyridine-6-carboxylic acid] | 374.57 | 605 | – | – | 162.65 | 348
7 | Cc1cccc(-n2nc(C(C)C)c3c(N4CCC(S(C)(=O)=O)CC4)cc(C(=O)O)nc32)c1 [compound 257, 4-[4-(methanesulfonyl)piperidin-1-yl]-1-(3-methylphenyl)-3-(propan-2-yl)-1H-pyrazolo[3,4-b]pyridine-6-carboxylic acid] | 440.2 | 788 | 260.4 | 2530 | – | –
8 | N#CC1CCN(c2ccc(-c3cc(C(=O)O)nc4c3c(C3CCC3)nn4-c3cccc(N4CCCC4)c3)cc2)CC1 [compound 247, 4-[4-(4-cyanopiperidin-1-yl)phenyl]-3-cyclobutyl-1-[3-(pyrrolidin-1-yl)phenyl]-1H-pyrazolo[3,4-b]pyridine-6-carboxylic acid] | 569.07 | 332 | 390.27 | 420 | – | –
9 | CS(=O)(=O)C1CCN(c2cc(C(=O)O)nc3c2c(C2CCC2)nn3-c2ccccc2)CC1 [compound 411, 3-cyclobutyl-4-[4-(methanesulfonyl)piperidin-1-yl]-1-phenyl-1H-pyrazolo[3,4-b]pyridine-6-carboxylic acid] | 456 | 976 | – | – | 280.85 | 3340
10 | CC(C)c1nn(-c2ccc(F)cc2)c2nc(C(=O)O)cc(N3CCN(CC4CCCO4)CC3)c12 (stereo not drawn) [compound 792, 1-(4-fluorophenyl)-4-{4-[(oxolan-2-yl)methyl]piperazin-1-yl}-3-(propan-2-yl)-1H-pyrazolo[3,4-b]pyridine-6-carboxylic acid] | 321 | 710 | – | – | 170.1 | 1430
11 | COC1CCN(c2cc(C(=O)O)nc3c2c(C(C)C)nn3-c2cccc(N(C)C)c2)CC1 [compound 330, 1-[3-(dimethylamino)phenyl]-4-(4-methoxypiperidin-1-yl)-3-(propan-2-yl)-1H-pyrazolo[3,4-b]pyridine-6-carboxylic acid] | 509.93 | 197 | 326.43 | 405 | – | –
12 | COCCN1CCN(C2CCN(c3cc(C(=O)O)nc4c3c(C3CCC3)nn4-c3ccccc3)CC2)CC1 [compound 694, 3-cyclobutyl-4-{4-[4-(2-methoxyethyl)piperazin-1-yl]piperidin-1-yl}-1-phenyl-1H-pyrazolo[3,4-b]pyridine-6-carboxylic acid] | 421.9 | 535 | – | – | 177.4 | 487
13 | COCCOCC1(F)CCN(c2cc(C(=O)O)nc3c2c(C2CCC2)nn3-c2ccccc2)CC1 [compound 459, 3-cyclobutyl-4-{4-fluoro-4-[(2-methoxyethoxy)methyl]piperidin-1-yl}-1-phenyl-1H-pyrazolo[3,4-b]pyridine-6-carboxylic acid] | 319.8 | 380 | – | – | 152.05 | 653
14 | CCN(CC)C(=O)C1CCCN(c2cc(C(=O)O)nc3c2c(C2CCC2)nn3-c2ccccc2)C1 (stereo not drawn) [compound 500, 3-cyclobutyl-4-[3-(diethylcarbamoyl)piperidin-1-yl]-1-phenyl-1H-pyrazolo[3,4-b]pyridine-6-carboxylic acid] | 289 | 296 | – | – | 132.8 | 467
15 | CC(C)c1nn(C2CCCCC2)c2nc(C(=O)O)cc(N3CCCCC3)c12 [compound 265, 1-cyclohexyl-4-(piperidin-1-yl)-3-(propan-2-yl)-1H-pyrazolo[3,4-b]pyridine-6-carboxylic acid] | 397.8 | 1390 | 132.05 | 1240 | – | –
16 | COCC1CCN(c2cc(C(=O)O)nc3c2c(C)nn3-c2ccccc2)CC1 [compound 291, 4-[4-(methoxymethyl)piperidin-1-yl]-3-methyl-1-phenyl-1H-pyrazolo[3,4-b]pyridine-6-carboxylic acid] | 349.55 | 1400 | 168.85 | 1710 | – | –
17 | Cc1nn(-c2ccccc2)c2nc(C(=O)O)cc(-c3ccc(N4CCCC(O)C4)cc3)c12 (stereo not drawn) [compound 198, 4-[4-(3-hydroxypiperidin-1-yl)phenyl]-3-methyl-1-phenyl-1H-pyrazolo[3,4-b]pyridine-6-carboxylic acid] | 364 | 1010 | 220 | 1120 | – | –
18 | O=C(O)c1cc(N2CCC(O)CC2)c2c(C3CCC3)nn(-c3ccccc3)c2n1 [compound 501, 3-cyclobutyl-4-(4-hydroxypiperidin-1-yl)-1-phenyl-1H-pyrazolo[3,4-b]pyridine-6-carboxylic acid] | 367.65 | 353 | – | – | 152.7 | 629
19 | Cc1nn(-c2cccc(N(C)C)c2)c2nc(C(=O)O)cc(-c3cnc(N4CCOCC4)nc3)c12 [compound 90, 1-[3-(dimethylamino)phenyl]-3-methyl-4-[2-(morpholin-4-yl)pyrimidin-5-yl]-1H-pyrazolo[3,4-b]pyridine-6-carboxylic acid] | 367.15 | 883 | 169.65 | 1040 | – | –
20 | CC(C)Oc1nn(C2CCCCC2)c2nc(C(=O)O)cc(-c3ccc(CN4CCN(C5CC5)CC4)cc3)c12 [compound 884, 1-cyclohexyl-4-{4-[(4-cyclopropylpiperazin-1-yl)methyl]phenyl}-3-[(propan-2-yl)oxy]-1H-pyrazolo[3,4-b]pyridine-6-carboxylic acid] | 377.6 | 214 | – | – | 140.6 | 298
21 | CC(=O)N1CC[C@@H]2CN(c3cc(C(=O)O)nc4c3c(C3CCC3)nn4-c3ccccc3)CC[C@@H]21 (single isomer, unassigned) [compound 587] | 360.33 | 2420 | – | – | 149.5 | 3330
22 | CC(C)c1nn(-c2cccc(N(C)C)c2)c2nc(C(=O)O)cc(-c3ccc(N4CCC(C#N)CC4)nc3)c12 [compound 177] | 606.47 | 689 | 364.43 | 701 | – | –
23 | Cc1nn(-c2ccc(F)cc2F)c2nc(C(=O)O)cc(-c3ccc(N4CCOCC4)cc3)c12 [compound 105, 1-(2,4-difluorophenyl)-3-methyl-4-[4-(morpholin-4-yl)phenyl]-1H-pyrazolo[3,4-b]pyridine-6-carboxylic acid] | 383.25 | 879 | 179.05 | 949 | – | –
24 | CC(C)c1nn(-c2cccc(N3CCOCC3)c2)c2nc(C(=O)O)cc(-c3ccc(N(C)C4CCOCC4)cc3)c12 [compound 208, 4-{4-[methyl(oxan-4-yl)amino]phenyl}-1-[3-(morpholin-4-yl)phenyl]-3-(propan-2-yl)-1H-pyrazolo[3,4-b]pyridine-6-carboxylic acid] | 673.2 | 647 | 413.75 | 603 | – | –
